# According to US8729054B2, “3-desoxy-2-methylene-vitamin D analogs and their uses” (Wisconsin Alumni Research Foundation, priority 2011, dated 2014):
# “Also recorded” adds a separate entry of the source.
# Columns and labels:
# [1] = tested on: Human promyelocytic leukemia (HL60) cells; experiment: HL-60 differentiation (nitro blue tetrazolium reduction); type: cell-based; conditions: for EC50: HL60 cells, four days after treatment, NBT reduction
# Procedure: The study drugs were dissolved in ethanol and the concentrations determined using UV spectrophotometry. Serial dilutions were prepared so that a range of drug concentrations could be tested without changing the final concentration of ethanol (≦0.2%) present in the cell cultures.
# Human promyelocytic leukemia (HL60) cells were grown in RPMI-1640 medium containing 10% fetal bovine serum. The cells were incubated at 37° C. in the presence of 5% CO2.
# HL60 cells were plated at 1.2×10^5 cells/ml. Eighteen hours after plating, cells in duplicate were treated with drug. Four days later, the cells were harvested and a nitro blue tetrazolium reduction assay was performed (Collins et al., 1979; J. Exp. Med. 149:969-974). The percentage of differentiated cells was determined by counting a total of 200 cells and recording the number that contained intracellular black-blue formazan deposits. Verification of differentiation to monocytic cells was determined by measuring phagocytic activity (data not shown).
# [2] = tested on: vitamin D-deficient rats; experiment: Bone calcium mobilization (serum calcium); type: in vivo, rat; conditions: for bone calcium mobilization activity as compared to 1,25(OH)2D3: rats on low calcium diet (0.02%), four consecutive ip doses
# Procedure: (§1) Male, weanling Sprague-Dawley rats were placed on Diet 11 (Suda et al, J. Nutr. 100:1049, 1970) (0.47% Ca)+vitamins AEK for one week followed by Diet 11 (0.02% Ca)+vitamins AEK for 3 weeks. The rats were then switched to the same diet containing 0.47% Ca for one week followed by two weeks on the same diet containing 0.02% Ca. Dose administration began during the last week on 0.02% calcium diet. Four consecutive ip doses were given approximately 24 hours apart. Twenty-four hours after the last dose, blood was collected from the severed neck and the concentration of serum calcium determined by atomic absorption spectrometry as a measure of bone calcium mobilization. The first 10 cm of the intestine was also collected for intestinal calcium transport analysis using the everted gut sac method.
# [3] = target: T1, full-length recombinant rat vitamin D receptor (Rattus norvegicus, UniProt P13053); experiment: Vitamin D receptor binding, competition with [3H]-1,25(OH)2D3; conditions: full-length recombinant rat VDR; for Ki: 1 nM radioligand
# T1 construct: Full-length recombinant rat receptor was expressed in E. coli BL21 (DE3) Codon Plus RIL cells; histidine tag (C); made in house; host or cells: E. coli BL21 (DE3) Codon Plus RIL
# T1 sequence (P13053 1-423): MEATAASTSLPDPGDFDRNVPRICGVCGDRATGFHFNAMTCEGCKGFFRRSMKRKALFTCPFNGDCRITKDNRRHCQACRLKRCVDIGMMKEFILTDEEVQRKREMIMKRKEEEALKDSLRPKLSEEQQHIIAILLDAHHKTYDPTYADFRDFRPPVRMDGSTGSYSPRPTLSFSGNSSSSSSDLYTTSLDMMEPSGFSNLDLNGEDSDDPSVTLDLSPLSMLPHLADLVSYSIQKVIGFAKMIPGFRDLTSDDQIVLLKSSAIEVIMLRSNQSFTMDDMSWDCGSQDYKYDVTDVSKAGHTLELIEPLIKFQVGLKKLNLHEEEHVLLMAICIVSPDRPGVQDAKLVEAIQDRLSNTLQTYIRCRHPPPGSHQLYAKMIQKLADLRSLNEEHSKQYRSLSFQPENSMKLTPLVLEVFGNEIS
# Procedure: Full-length recombinant rat receptor was expressed in E. coli BL21 (DE3) Codon Plus RIL cells and purified to homogeneity using two different column chromatography systems. The first system was a nickel affinity resin that utilizes the C-terminal histidine tag on this protein. The protein that was eluted from this resin was further purified using ion exchange chromatography (S-Sepharose Fast Flow). Aliquots of the purified protein were quick frozen in liquid nitrogen and stored at −80° C. until use. For use in binding assays, the protein was diluted in TEDK50 (50 mM Tris, 1.5 mM EDTA, pH 7.4, 5 mM DTT, 150 mM KCI) with 0.1% Chaps detergent. The receptor protein and ligand concentration was optimized such that no more than 20% of the added radiolabeled ligand was bound to the receptor.
# Radiolabeled and unlabeled ligands were added to 100 mcl of the diluted protein at a final ethanol concentration of ≦10%, mixed and incubated overnight on ice to reach binding equilibrium. The following day, 100 mcl of hydroxylapatite slurry (50%) was added to each tube and mixed at 10-minute intervals for 30 minutes. The hydroxylapaptite was collected by centrifugation and then washed three times with Tris-EDTA buffer (50 mM Tris, 1.5 mM EDTA, pH 7.4) containing 0.5% Titron X-100. After the final wash, the pellets were transferred to scintillation vials containing 4 ml of Biosafe II scintillation cocktail, mixed and placed in a scintillation counter. Total binding was determined from the tubes containing only radiolabeled ligand.
# [4] = tested on: 24-hydroxylase (24Ohase) gene promoter; experiment: In vitro transcription assay, luciferase reporter in ROS 17/2.8 (bone) cells; type: cell-based; conditions: for transcriptional activity in bone cells as compared to 1α,25-dihydroxyvitamin D3: 24-hydroxylase gene; for EC50: ROS 17/2.8 cells, luciferase, sixteen hours after dosing, read-out: EC50, transcriptional activity in bone cells (24-hydroxylase gene)
# Procedure: Transcription activity was measured in ROS 17/2.8 (bone) cells that were stably transfected with a 24-hydroxylase (24Ohase) gene promoter upstream of a luciferase reporter gene (Arbour et al., 1998). Cells were given a range of doses. Sixteen hours after dosing the cells were harvested and luciferase activities were measured using a luminometer. RLU=relative luciferase units.
# [5] = tested on: vitamin D-deficient rats; experiment: Intestinal calcium transport (everted gut sac method); type: in vivo, rat; conditions: rats on low calcium diet (0.02%), four consecutive ip doses
# Procedure: as §1
"affinity to the receptor as compared to 1,25(OH)2D3 [3]",Ki [3] [nM],"EC50 ([1]; Homo sapiens, HL-60, 96 h) [nM]",EC50 [4] [nM],Compound,EC50 [1] [nM],serum calcium levels ([2]; at the dosages tested),"potency on HL-60 cell differentiation as compared to 1,25(OH)2D3 [1]","transcriptional activity in bone cells as compared to 1α,25-dihydroxyvitamin D3 [4]",mobilization of bone calcium as compared to native hormone at the same dose ([2]; 87 pmol/day for 4 consecutive days),"bone calcium mobilization activity as compared to 1,25(OH)2D3 [2]","potency on HL-60 cell differentiation relative to 1,25(OH)2D3 ([1]; compared with 1,25(OH)2D3)","intestinal calcium transport activity as compared to 1,25(OH)2D3 [5]",mobilization of bone calcium as compared to native hormone at the same dose ([2]; 780 pmol/day for 4 consecutive days)
,,,,"C=C1/C(=C\C=C2/CCC[C@]3(C)[C@@H]([C@H](C)CCCC(C)(C)O)CC[C@@H]23)C[C@@H](O)C[C@@H]1O [1α,25-dihydroxyvitamin D3, reference compound]",3,increased serum calcium levels,,,,,,,
about the same affinity,0.4,1,0.2,"C=C1CC/C(=C/C=C2\CCC[C@]3(C)[C@@H]([C@H](C)CCCC(C)(C)O)CC[C@@H]23)C(=C)[C@H]1O [3D-QM, (20R)-3-desoxy-1α,25-dihydroxy-2-methylene-vitamin D3]",,,"about the same potency as 1,25(OH)2D3",about the same transcriptional activity,only slightly less mobilization of bone calcium than the native hormone,about the same potency as the native hormone,,,
about the same affinity,0.3,0.08,0.03,"C=C1CC/C(=C/C=C2\CCC[C@]3(C)[C@@H]([C@@H](C)CCCC(C)(C)O)CC[C@@H]23)C(=C)[C@H]1O [3D-QMS, (20S)-3-desoxy-1α,25-dihydroxy-2-methylene-vitamin D3]",,,,about the same transcriptional activity,,"more potent than the native hormone; also recorded: significantly more activity in mobilizing calcium from bone than 1,25(OH)2D3",about 40 times,"more potent than 1,25(OH)2D3",higher mobilization of bone calcium than the native hormone
